Measurements from patent publication US8193198B2, “Uracil compounds and a herbicide comprising the same” (Korea Research Institute of Chemical Technology, priority 2008, dated 2012).

What was measured:
Format in all cases: in vivo
Abutilon theophrasti [1] = test: Soil treatment herbicidal activity test; details: Table 7, 32 g a.i./ha, 2 weeks, scale 0 to 100 (complete destruction)
Method: (§1) A compound fertilizer for horticulture (N:P:K=11:10:11) was mixed with sterilized sandy soil (pH 6.1, organic substance 1.0%, clay 21%, silt 17%, sand 52%), 1 g per each pot (350 cm^2). The soil was filled in a square plastic pot, and corn, Poaceae plants including Panicum dichotomiflorum and Digitaria ciliaris, broadleaf plants including Solanum nigrum, Aeschynomene indica, Abutilon theophrasti and cocklebur, or convolvulus rhizome were sown and covered with soil. Soil treatment was carried out by spraying a test formulation 1 day after the sowing, and foliar treatment, 8 to 12 days after the sowing. The test formulation was prepared by dissolving of a test compound in a mixture of 5 wt % of acetone and 1 wt % of an emulsifier, and diluting with water to prepare a wettable powder. 2000 L of the test formulation was sprayed per hectare. The amount of the active compound was adjusted to a desired quantity.
(§2) Following the treatment, the plants were grown for 2 weeks under a greenhouse condition (25-35° C. during the day and 20-25° C. at night, 14 hour light cycle). Herbicidal activity was evaluated in comparison to a non-treated control group according to the following standard: for weeds, 0 (no herbicidal effect) to 100 (complete destruction); and for crops 0 (harmless) to […] (complete destruction).

Solanum nigrum [2] = test: Soil treatment herbicidal activity test; details: Table 7, 32 g a.i./ha, 2 weeks, scale 0 to 100 (complete destruction)
Method: as §1, §2

Aeschynomene indica [3] = test: Soil treatment herbicidal activity test; details: Table 7, 32 g a.i./ha, 2 weeks, scale 0 to 100 (complete destruction)
Method: as §1, §2

Digitaria ciliaris [4] = test: Soil treatment herbicidal activity test; details: Table 7, 32 g a.i./ha, 2 weeks, scale 0 to 100 (complete destruction)
Method: as §1, §2

Sorghum bicolor [5] = test: Soil treatment herbicidal activity test; details: Table 7, 32 g a.i./ha, 2 weeks, scale 0 to 100 (complete destruction)
Method: as §1, §2

Cyperus serotinus = test: Foliar treatment herbicidal activity test; details: Table 4 (I), 8 g a.i./ha, 2 weeks, scale 0 to 100 (complete destruction)
Panicum dichotomiflorum = test: Foliar treatment herbicidal activity test; details: 2 weeks, scale 0 to 100 (complete destruction)
Method: as §1, §2

Abutilon theophrasti [6] = test: Foliar treatment herbicidal activity test; details: 2 weeks, scale 0 to 100 (complete destruction)
Method: as §1, §2

Solanum nigrum [7] = test: Foliar treatment herbicidal activity test; details: 2 weeks, scale 0 to 100 (complete destruction)
Method: as §1, §2

Aeschynomene indica [8] = test: Foliar treatment herbicidal activity test; details: 2 weeks, scale 0 to 100 (complete destruction)
Method: as §1, §2

Cocklebur = test: Foliar treatment herbicidal activity test; details: for Herbicidal activity, Cocklebur: foliar treatment, 8 g a.i./ha, 2 weeks
Method: as §1, §2

Echinochloa crus-galli = test: Foliar treatment herbicidal activity test; details: 2 weeks; for pest or weed control at 8 g/ha / pest or weed control at 16 g/ha: Echinochloa crus-galli, 336 h; for pest or weed control at 16 g/ha: Table 6 (III), 16 g a.i./ha
Method: as §1, §2

Digitaria ciliaris [9] = test: Foliar treatment herbicidal activity test; details: 2 weeks; for pest or weed control at 8 g/ha / pest or weed control at 16 g/ha: Digitaria ciliaris, 336 h; for pest or weed control at 16 g/ha: Table 6 (III), 16 g a.i./ha
Method: as §1, §2

Sorghum bicolor [10] = test: Foliar treatment herbicidal activity test; details: Table 4 (I), 8 g a.i./ha, 2 weeks, scale 0 to 100 (complete destruction)
Method: as §1, §2

Corn = test: Soil treatment test, crop harm; details: Table 7, 32 g a.i./ha, 2 weeks, crops scale 0 (harmless) to 10 (complete destruction)
Method: as §1, §2

Wheat = test: Soil treatment test, crop harm; details: Table 7, 32 g a.i./ha, 2 weeks, crops scale 0 (harmless) to 10 (complete destruction)
monocot weeds = test: Foliar treatment herbicidal activity test (summary in text)
Method: as §1, §2

[11] = Table 3, scale 0 (no herbicidal effect) to 100 (complete destruction)
[12] = Table 4 (I), scale 0 to 100 (complete destruction)
[13] = Table 3, 8 g a.i./ha, scale 0 (no herbicidal effect) to 100 (complete destruction)
[14] = Table 5 (II), 8 g a.i./ha, scale 0 to 100 (complete destruction)
[15] = Table 4 (I), 8 g a.i./ha, scale 0 to 100 (complete destruction)
[16] = scale 0 to 100 (complete destruction)

| SMILES | Herbicidal activity, Cocklebur (Cocklebur; [11]) | pest or weed control at 8 g/ha (Echinochloa crus-galli; [13]) | pest or weed control at 8 g/ha (Digitaria ciliaris [9]; [13]) | Herbicidal activity, Panicum dichotomiflorum (Panicum dichotomiflorum; Table 6 (III), 16 g a.i./ha) | Herbicidal activity, Abutilon theophrasti (Abutilon theophrasti [6]; Table 6 (III), 16 g a.i./ha) | Herbicidal activity, Solanum nigrum (Solanum nigrum [7]; Table 6 (III), 16 g a.i./ha) | Herbicidal activity, Aeschynomene indica (Aeschynomene indica [8]; Table 6 (III), 16 g a.i./ha) | pest or weed control at 16 g/ha (Echinochloa crus-galli; [16]) | pest or weed control at 16 g/ha (Digitaria ciliaris [9]; [16]) | Herbicidal activity against cocklebur (in words) (Cocklebur) | Herbicidal activity against monocot weeds (in words) (monocot weeds) | other results |
| --- | --- | --- | --- | --- | --- | --- | --- | --- | --- | --- | --- | --- |
| COC(=O)CCNC(=O)C(C)Oc1cc(-n2c(=O)cc(C(F)(F)F)n(C)c2=O)c(F)cc1Cl (centres unmarked) [Compound No. 1, 3-[{2-[2-chloro-5-(3,6-dihydro-3-methyl-2,6-dioxo-4-trifluoromethyl-1(2H)-pyrimidinyl)-4-fluorophenoxy]-1-oxopropyl}amino]propionic acid methyl ester] | 100 | 100% | 100% | – | – | – | – | – | – | – | – | Herbicidal activity, Abutilon theophrasti (Abutilon theophrasti [1]): 100; Herbicidal activity, Solanum nigrum (Solanum nigrum [2]): 100; Herbicidal activity, Aeschynomene indica (Aeschynomene indica [3]): 100; Herbicidal activity, Digitaria ciliaris (Digitaria ciliaris [4]): 100; Herbicidal activity, Sorghum bicolor (Sorghum bicolor [5]): 100; Herbicidal activity, Cyperus serotinus (Cyperus serotinus): 100; Herbicidal activity, Panicum dichotomiflorum (Panicum dichotomiflorum; Table 5 (II), 8 g a.i./ha): 100; Herbicidal activity, Abutilon theophrasti (Abutilon theophrasti [6]; Table 4 (I), 8 g a.i./ha): 100; Herbicidal activity, Abutilon theophrasti (Abutilon theophrasti [6]; Table 5 (II), 8 g a.i./ha): 100; Herbicidal activity, Solanum nigrum (Solanum nigrum [7]; Table 5 (II), 8 g a.i./ha): 100; Herbicidal activity, Aeschynomene indica (Aeschynomene indica [8]; Table 4 (I), 8 g a.i./ha): 100; Herbicidal activity, Aeschynomene indica (Aeschynomene indica [8]; Table 5 (II), 8 g a.i./ha): 100; Herbicidal activity, Cocklebur (Cocklebur; [12]): 100; Herbicidal activity, Echinochloa crus-galli (Echinochloa crus-galli; [14]): 100; Herbicidal activity, Digitaria ciliaris (Digitaria ciliaris [9]; [15]): 100; Herbicidal activity, Digitaria ciliaris (Digitaria ciliaris [9]; [14]): 100; Herbicidal activity, Sorghum bicolor (Sorghum bicolor [10]): 97; Crop harm, Corn (Corn): 2; Crop harm, Wheat (Wheat): 3 |
| COC(=O)COC(=O)CCNC(=O)C(C)Oc1cc(-n2c(=O)cc(C(F)(F)F)n(C)c2=O)c(F)cc1Cl (centres unmarked) [Compound No. 22, 3-[{2-[2-chloro-5-(3,6-dihydro-3-methyl-2,6-dioxo-4-trifluoromethyl-1(2H)-pyrimidinyl)-4-fluorophenoxy]-1-oxopropyl}amino]propionyloxy acetic acid methyl ester] | – | – | – | 100 | 100 | 100 | 100 | 100% | 85% | – | – | – |
| CCCCOC(=O)CCNC(=O)C(C)Oc1cc(-n2c(=O)cc(C(F)(F)F)n(C)c2=O)c(F)cc1Cl (centres unmarked) [Compound No. 23, 3-[{2-[2-chloro-5-(3,6-dihydro-3-methyl-2,6-dioxo-4-trifluoromethyl-1(2H)-pyrimidinyl)-4-fluorophenoxy]-1-oxopropyl}amino]propionic acid n-butyl ester] | – | – | – | 100 | 100 | 100 | 100 | 100% | 100% | – | – | – |
| CCOC(=O)CCNC(=O)C(C)Oc1cc(-n2c(=O)cc(C(F)(F)F)n(C)c2=O)c(F)cc1Cl (centres unmarked) [Compound No. 24, 3-[{2-[2-chloro-5-(3,6-dihydro-3-methyl-2,6-dioxo-4-trifluoromethyl-1(2H)-pyrimidinyl)-4-fluorophenoxy]-1-oxopropyl}amino]propionic acid ethyl ester] | – | – | – | – | – | – | – | – | – | – | – | Herbicidal activity, Panicum dichotomiflorum (Panicum dichotomiflorum; Table 5 (II), 8 g a.i./ha): 99; Herbicidal activity, Abutilon theophrasti (Abutilon theophrasti [6]; Table 5 (II), 8 g a.i./ha): 100; Herbicidal activity, Solanum nigrum (Solanum nigrum [7]; Table 5 (II), 8 g a.i./ha): 100; Herbicidal activity, Aeschynomene indica (Aeschynomene indica [8]; Table 5 (II), 8 g a.i./ha): 100; pest or weed control at 8 g/ha (Echinochloa crus-galli; [14]): 98%; pest or weed control at 8 g/ha (Digitaria ciliaris [9]; [14]): 99% |
| C=CCOC(=O)CCNC(=O)C(C)Oc1cc(-n2c(=O)cc(C(F)(F)F)n(C)c2=O)c(F)cc1Cl (centres unmarked) [Compound No. 25, 3-[{2-[2-chloro-5-(3,6-dihydro-3-methyl-2,6-dioxo-4-trifluoromethyl-1(2H)-pyrimidinyl)-4-fluorophenoxy]-1-oxopropyl}amino]propionic acid allyl ester] | – | – | – | 96 | 100 | 100 | 100 | 90% | 100% | – | – | – |
| C#CCOC(=O)CCNC(=O)C(C)Oc1cc(-n2c(=O)cc(C(F)(F)F)n(C)c2=O)c(F)cc1Cl (centres unmarked) [Compound No. 26, 3-[{2-[2-chloro-5-(3,6-dihydro-3-methyl-2,6-dioxo-4-trifluoromethyl-1(2H)-pyrimidinyl)-4-fluorophenoxy]-1-oxopropyl}amino]propionic acid propargyl ester] | – | – | – | 90 | 100 | 100 | 100 | 90% | 95% | – | – | – |
| COC(=O)CCNC(=O)C(C)Sc1cc(-n2c(=O)cc(C(F)(F)F)n(C)c2=O)c(F)cc1Cl (centres unmarked) [Compound No. 36, 3-[{2-[2-chloro-5-(3,6-dihydro-3-methyl-2,6-dioxo-4-trifluoromethyl-1(2H)-pyrimidinyl)-4-fluorophenylthio]-1-oxopropyl}amino]propionic acid methyl ester] | – | – | – | – | – | – | – | – | – | – | – | Herbicidal activity, Abutilon theophrasti (Abutilon theophrasti [1]): 100; Herbicidal activity, Solanum nigrum (Solanum nigrum [2]): 100; Herbicidal activity, Aeschynomene indica (Aeschynomene indica [3]): 100; Herbicidal activity, Digitaria ciliaris (Digitaria ciliaris [4]): 100; Herbicidal activity, Sorghum bicolor (Sorghum bicolor [5]): 100; Herbicidal activity, Cyperus serotinus (Cyperus serotinus): 100; Herbicidal activity, Abutilon theophrasti (Abutilon theophrasti [6]; Table 4 (I), 8 g a.i./ha): 100; Herbicidal activity, Aeschynomene indica (Aeschynomene indica [8]; Table 4 (I), 8 g a.i./ha): 100; Herbicidal activity, Cocklebur (Cocklebur; [12]): 100; pest or weed control at 8 g/ha (Digitaria ciliaris [9]; [15]): 100%; Herbicidal activity, Sorghum bicolor (Sorghum bicolor [10]): 100; Crop harm, Corn (Corn): 0; Crop harm, Wheat (Wheat): 0 |
| COC(=O)CNC(=O)C(C)Oc1cc(-n2c(=O)cc(C(F)(F)F)n(C)c2=O)c(F)cc1Cl (centres unmarked) [compound 1] | 98 | 55% | 30% | – | – | – | – | – | – | imperfect herbicidal activity | very low herbicidal activity | – |
| COC(=O)C(C)NC(=O)C(C)Oc1cc(-n2c(=O)cc(C(F)(F)F)n(C)c2=O)c(F)cc1Cl (centres unmarked) [compound 2] | 70 | 65% | 25% | – | – | – | – | – | – | imperfect herbicidal activity | very low herbicidal activity | – |
| COC(=O)CONC(=O)C(C)Oc1cc(-n2c(=O)cc(C(F)(F)F)n(C)c2=O)c(F)cc1Cl (centres unmarked) [compound 3] | 95 | 30% | 10% | – | – | – | – | – | – | imperfect herbicidal activity | very low herbicidal activity | – |
